18 compounds from US20220340597A1, “HEXAHYDRO-1H-PYRAZINO[1,2-A]PYRAZINE COMPOUNDS FOR THE TREATMENT OF AUTOIMMUNE DISEASE” (Hoffmann-La Roche Inc., priority 2019, published 2022) can be followed below.

The assay concerns the target T1, human TLR9 (Homo sapiens, UniProt Q9NR96).
T1 construct: host or cells: HEK293 (HEK-Blue hTLR9)
T1 sequence (Q9NR96 26-1032): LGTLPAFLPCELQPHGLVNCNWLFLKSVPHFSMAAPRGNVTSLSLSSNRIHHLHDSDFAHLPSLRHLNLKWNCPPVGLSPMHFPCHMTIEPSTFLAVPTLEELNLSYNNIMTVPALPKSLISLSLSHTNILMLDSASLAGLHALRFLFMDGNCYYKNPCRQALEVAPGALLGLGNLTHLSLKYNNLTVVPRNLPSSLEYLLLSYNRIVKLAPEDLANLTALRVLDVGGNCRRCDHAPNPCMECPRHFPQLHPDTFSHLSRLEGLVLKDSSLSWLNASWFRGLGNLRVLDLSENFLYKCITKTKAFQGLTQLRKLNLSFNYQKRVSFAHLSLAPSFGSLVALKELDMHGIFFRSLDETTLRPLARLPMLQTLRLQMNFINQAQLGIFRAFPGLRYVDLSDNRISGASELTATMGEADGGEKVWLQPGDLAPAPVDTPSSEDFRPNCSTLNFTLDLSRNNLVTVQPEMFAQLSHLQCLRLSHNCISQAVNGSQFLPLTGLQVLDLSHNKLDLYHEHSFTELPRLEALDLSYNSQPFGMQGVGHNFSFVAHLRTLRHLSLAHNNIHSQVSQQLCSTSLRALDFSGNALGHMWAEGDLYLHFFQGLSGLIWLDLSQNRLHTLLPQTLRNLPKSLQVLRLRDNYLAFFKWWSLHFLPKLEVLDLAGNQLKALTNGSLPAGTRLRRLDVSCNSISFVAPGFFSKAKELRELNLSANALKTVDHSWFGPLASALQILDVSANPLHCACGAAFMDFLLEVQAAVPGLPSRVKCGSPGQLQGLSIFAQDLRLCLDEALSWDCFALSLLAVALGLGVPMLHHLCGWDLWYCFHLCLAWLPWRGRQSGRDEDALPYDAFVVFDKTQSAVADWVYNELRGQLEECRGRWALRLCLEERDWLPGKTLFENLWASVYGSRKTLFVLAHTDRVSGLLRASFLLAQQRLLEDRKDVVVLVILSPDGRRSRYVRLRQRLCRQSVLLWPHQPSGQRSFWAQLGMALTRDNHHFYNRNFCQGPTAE
The experiment in a line: HEK293-Blue-hTLR-9 cells assay. The assay is classed as cell-based. The following applies: HEK293-Blue-hTLR9 cells, ODN2006 stimulation, 20 hrs, SEAP reporter; read-out: HEK/hTLR9 IC50. The procedure:
The following tests were carried out in order to determine the activity of the compounds of formula (I) and (Ia) in HEK293-Blue-hTLR-7/8/9 cells assay.
HEK293-Blue-hTLR-9 Cells Assay:
A stable HEK293-Blue-hTLR-9 cell line was purchased from InvivoGen (Cat. #: hkb-htlr9, San Diego, Calif., USA). These cells were originally designed for studying the stimulation of human TLR9 by monitoring the activation of NF-κB. A SEAP (secreted embryonic alkaline phosphatase) reporter gene was placed under the control of the […] minimal promoter fused to five NF-κB and AP-1-binding sites. The SEAP was induced by activating NF-κB and AP-1 via stimulating HEK-Blue hTLR9 cells with TLR9 ligands. Therefore, the reporter expression was declined by TLR9 antagonist under the stimulation of a ligand, such as ODN2006 (Cat. #: tlr1-2006-1, Invivogen, San Diego, Calif., USA), for incubation of 20 hrs. The cell culture supernatant SEAP reporter activity was determined using QUANTI-Blue™ kit (Cat. #: rep-qb1, Invivogen, San Diego, Calif., USA) at a wavelength of 640 nm, a detection medium that turns purple or blue in the presence of alkaline phosphatase.
Then 20 μL of the supernatant from each well was incubated with 180 μL Quanti-blue substrate solution at 37° C. for 2 h and the absorbance was read at 620-655 nm using a spectrophotometer. The signaling pathway that TLR9 activation leads to downstream NF-κB activation has been widely accepted, and therefore similar reporter assay was modified for evaluating TLR9 antagonist.
In the case of `C[C@@H]1CN(c2ccc(C#N)c3ncccc23)C[C@@H]2CN(CCc3ccc(N4CCNCC4)nc3)CCN21` [Example 11, 5-[(4R,9aS)-4-methyl-8-[2-(6-piperazin-1-yl-3-pyridyl)ethyl]-3,4,6,7,9,9a-hexahydro-1H-pyrazino[1,2-a]pyrazin-2-yl]quinoline-8-carbonitrile], the IC50 was determined as 37 nM.
Take `C[C@@H]1CN(c2ccc(C#N)c3ncccc23)C[C@@H]2CN(CCc3ccc(N4CC(C)(N)C4)nc3)CCN21` [Example 65, 5-[(4R,9aS)-8-[2-[6-(3-amino-3-methyl-azetidin-1-yl)-3-pyridyl]ethyl]-4-methyl-3,4,6,7,9,9a-hexahydro-1H-pyrazino[1,2-a]pyrazin-2-yl]quinoline-8-carbonitrile]: the IC50 was determined as 50 nM.
Consider `C[C@@H]1CN(c2ccc(C#N)c3ncccc23)C[C@@H]2CN(CCc3cccc(N4CCN[C@@H](C)C4)n3)CCN21` [Example 21, 5-[(4R,9aS)-4-methyl-8-[2-[6-[(3S)-3-methylpiperazin-1-yl]-2-pyridyl]ethyl]-3,4,6,7,9,9a-hexahydro-1H-pyrazino[1,2-a]pyrazin-2-yl]quinoline-8-carbonitrile], for which the IC50 came to 56 nM.
Next, `CO[C@@H]1CN(c2ccc(CCN3CCN4[C@@H](C3)CN(c3ccc(C#N)n5ncc(F)c35)C[C@H]4C)cc2)C[C@H]1N` [Example 66, 4-[(4R,9aS)-8-[2-[4-[(3R,4R)-3-amino-4-methoxy-pyrrolidin-1-yl]phenyl]ethyl]-4-methyl-3,4,6,7,9,9a-hexahydro-1H-pyrazino[1,2-a]pyrazin-2-yl]-3-fluoro-pyrazolo[1,5-a]pyridine-7-carbonitrile]: 116 nM; `CO[C@@H]1CN(c2ccc(CCN3CCN4[C@@H](C3)CN(c3ccc(C#N)n5nccc35)C[C@H]4C)cc2)C[C@H]1N` [Example 68, 4-[(4R,9aS)-8-[2-[4-[(3R,4R)-3-amino-4-methoxy-pyrrolidin-1-yl]phenyl]ethyl]-4-methyl-3,4,6,7,9,9a-hexahydro-1H-pyrazino[1,2-a]pyrazin-2-yl]pyrazolo[1,5-a]pyridine-7-carbonitrile]: 41 nM.
For `Cc1cc(N2CCOC[C@H](N)C2)ncc1N1CCN2CCN(c3ccc(C#N)c4ncccc34)CC2C1` (stereo partly drawn) [Example 46, 5-[2-[6-[(6R)-6-amino-1,4-oxazepan-4-yl]-4-methyl-3-pyridyl]-3,4,6,7,9,9a-hexahydro-1H-pyrazino[1,2-a]pyrazin-8-yl]quinoline-8-carbonitrile] the value was 78 nM.
Next, `C[C@@H]1CN(c2ccc(C#N)c3ncccc23)C[C@@H]2CN(Cc3ccc(N4CCCNCC4)nc3)CCN21` [Example 15, 5-[(4R,9aS)-8-[[6-(1,4-diazepan-1-yl)-3-pyridyl]methyl]-4-methyl-3,4,6,7,9,9a-hexahydro-JH-pyrazino[1,2-a]pyrazin-2-yl]quinoline-8-carbonitrile]: 41 nM; `CO[C@@H]1CN(c2ccc(CCN3CCN4[C@@H](C3)CN(c3ccc(C#N)n5ncc(F)c35)C[C@H]4C)cn2)C[C@H]1N` [Example 67, 4-[(4R,9aS)-8-[2-[6-[(3R,4R)-3-amino-4-methoxy-pyrrolidin-1-yl]-3-pyridyl]ethyl]-4-methyl-3,4,6,7,9,9a-hexahydro-1H-pyrazino[1,2-a]pyrazin-2-yl]-3-fluoro-pyrazolo[1,5-a]pyridine-7-carbonitrile]: 83 nM; `C[C@@H]1CN(c2ccc(C#N)c3ncccc23)C[C@@H]2CN(c3ccnc(N4CCNCC4)n3)CCN21` [Example 33, 5-[(4R,9aR)-4-methyl-8-(2-piperazin-1-ylpyrimidin-4-yl)-3,4,6,7,9,9a-hexahydro-1H-pyrazino[1,2-a]pyrazin-2-yl]quinoline-8-carbonitrile]: 64 nM.
Turning to `[2H]c1ccc2c(N3C[C@@H]4CN(CCc5ccc(N6C[C@@H](N)[C@H](OC)C6)nc5)CCN4[C@H](C)C3)ccc(C#N)c2n1` [Example 62, 5-[(4R,9aS)-8-[2-[6-[(3R,4R)-3-amino-4-methoxy-pyrrolidin-1-yl]-3-pyridyl]ethyl]-4-methyl-3,4,6,7,9,9a-hexahydro-1H-pyrazino[1,2-a]pyrazin-2-yl]-2-deuterio-quinoline-8-carbonitrile], the IC50 was determined as 43 nM.
For `[2H]c1ccc2c(N3C[C@@H]4CN(Cc5ccc(N6CCNCC6)nc5)CCN4[C@H](C)C3)ccc(C#N)c2n1` [Example 78, 5-[(4R,9aS)-4-methyl-8-[(6-piperazin-1-yl-3-pyridyl)methyl]-3,4,6,7,9,9a-hexahydro-1H-pyrazino[1,2-a]pyrazin-2-yl]-2-deuterio-quinoline-8-carbonitrile], the IC50 was under 32 nM.
For `[2H]c1ccc2c(N3C[C@@H]4CN(c5ncc(C(=O)N6CC7(CN(C)C7)C6)cc5C)CCN4[C@H](C)C3)ccc(C#N)c2n1` [Example 102, 5-[(4R,9aR)-4-methyl-8-[3-methyl-5-(6-methyl-2,6-diazaspiro[3.3]heptane-2-carbonyl)-2-pyridyl]-3,4,6,7,9,9a-hexahydro-1H-pyrazino[1,2-a]pyrazin-2-yl]-2-deuterio-quinoline-8-carbonitrile], the IC50 amounted to 154 nM.
`N#Cc1ccc(N2CCN3CCN(c4cccc5c4CNC5)CC3C2)c2cccnc12` (stereo not drawn) [Example 35, 5-(8-isoindolin-4-yl-3,4,6,7,9,9a-hexahydro-1H-pyrazino[1,2-a]pyrazin-2-yl)quinoline-8-carbonitrile]: the IC50 amounted to 98 nM.
Next, `Cc1nc(N2CC(C)(N)C2)ccc1CN1CCN2[C@@H](C1)CN(c1ccc(C#N)c3ncccc13)C[C@H]2C` [Example 76, 5-[(4R,9aS)-8-[[6-(3-amino-3-methyl-azetidin-1-yl)-2-methyl-3-pyridyl]methyl]-4-methyl-3,4,6,7,9,9a-hexahydro-1H-pyrazino[1,2-a]pyrazin-2-yl]quinoline-8-carbonitrile]: 50 nM; `[2H]c1ccc2c(N3C[C@@H]4CN(c5ncc(N6CC7CC(C6)N7)cc5C)CCN4[C@@H](C)C3)ccc(C#N)c2n1` [Example 108, 5-[(4S,9aR)-8-[5-(3,6-diazabicyclo[3.1.1]heptan-3-yl)-3-methyl-2-pyridyl]-4-methyl-3,4,6,7,9,9a-hexahydro-1H-pyrazino[1,2-a]pyrazin-2-yl]-2-deuterio-quinoline-8-carbonitrile]: 98 nM.
For the compound `C[C@@H]1CN(c2ccc(C#N)c3ncccc23)C[C@@H]2CN(c3ccnc(N4CCNCC4)c3)CCN21` [Example 32, 5-[(4R,9aS)-4-methyl-8-(2-piperazin-1-yl-4-pyridyl)-3,4,6,7,9,9a-hexahydro-1H-pyrazino[1,2-a]pyrazin-2-yl]quinoline-8-carbonitrile], the IC50 worked out at 34 nM.
For `CO[C@H]1CN(c2ccc(CCN3CCN4[C@@H](C3)CN(c3ccc(C#N)c5ncccc35)C[C@H]4C)cn2)C[C@H]1N` [Example 24, 5-[(4R,9aS)-8-[2-[6-[(3R,4S)-3-amino-4-methoxy-pyrrolidin-1-yl]-3-pyridyl]ethyl]-4-methyl-3,4,6,7,9,9a-hexahydro-1H-pyrazino[1,2-a]pyrazin-2-yl]quinoline-8-carbonitrile] the value was 45 nM; for `[2H]c1ccc2c(N3C[C@@H]4CN(c5ccc(CCN6C[C@H](OC)[C@@H](N)C6)cn5)CCN4[C@@H](C)C3)ccc(C#N)c2n1` [Example 122, 5-[(4S,9aR)-8-[5-[2-[(3S,4S)-3-amino-4-methoxy-pyrrolidin-1-yl]ethyl]-2-pyridyl]-4-methyl-3,4,6,7,9,9a-hexahydro-1H-pyrazino[1,2-a]pyrazin-2-yl]-2-deuterio-quinoline-8-carbonitrile], 51 nM.
